Common to all, as to assay: NCI tumour cell line growth inhibition, 48 h
Assay [1] deals with SF-539 CNS.
Assay [2] concerns CAKI-1 renal.
Assay [3] concerns A549 NSCLC.
For assay [4], the system named is MCF7 breast.
Assay [5] deals with M14 melanoma.
The subject of assay [6] is EKVX NSCLC.
In assay [7] the test system is T-47D breast.
Assay [8] relates to SK-MEL-2 melanoma.
Assay [9] relates to UO-31 renal.
Assay [10] deals with K-562 leukemia.

“And” between values parts separate entries of the source, which are not always exact repeats. Equal values may be shown once.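 Assay format: 96-well plates, 48-hour exposure. GI50 marks 50% less growth. TGI is the concentration that stops growth completely.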

On to `C[C@@H]1[C@H](C)N1CC(O)Cn1ccnc1[N+](=O)[O-]` (some centres undefined), for which the TGI in assay [1], in assay [2], in assay [3], in [4], in [5] and in assay [6] was above 100 µM throughout. Further, the TGI in [7], in assay [8], in [9] and in assay [10] was above 100 µM each time.

With `CC1=C(C(=O)Nc2ccc3n[nH]c(C)c3c2)C(c2ccc(C(F)(F)F)cc2)CC(=O)N1` (centres undefined), the GI50 in assay [1] was 7.12 µM; in assay [2], above 18.8 µM; in assay [3] it was 18.5 µM; in assay [4] it was above 17.3 µM; in assay [5], above 25 µM; in assay [6], 5890 nM. The GI50 in assay [7] is above 25 µM; in assay [8], above 25 µM; in [9] it was 3.91 µM; in assay [10], above 25 µM. For the same molecule, the TGI in [1], in [2], in [3], in assay [4], in [5] and in assay [6] was above 25 µM in each case. The TGI in assay [7], in assay [8], in assay [9] and in assay [10] was above 25 µM throughout.

As for `C[C@H]1CC[C@@]2(NC1)O[C@H]1C[C@H]3[C@@H]4CC[C@H]5C[C@@H](O)CC[C@]5(C)[C@H]4CC[C@]3(C)[C@H]1[C@@H]2C`, the GI50 in assay [1] is 13.8 µM; in assay [2] it was 12.9 µM; in [3] it was 19.6 µM; in assay [4] it was 12.9 µM; in [5], 18.1 µM; in [7], 12.3 µM. In addition, the GI50 was 10.7 µM in assay [8], 14.2 µM in [9] and 6.87 µM in assay [10]. In addition, the TGI in assay [1] was 32.2 µM and > 100 µM; in assay [2], 34.5 µM and > 100 µM; in assay [3], 50 µM and > 100 µM; in assay [4], 36.8 µM and > 100 µM; in assay [5] it was 50 µM and > 100 µM; in [6], above 100 µM. Further, the TGI in [7] was 50 µM and > 100 µM; in assay [8], 23.9 µM and > 100 µM; in [9], 44.6 µM and > 100 µM; in [10], 23 µM and > 100 µM.

Regarding `COc1cc(OC)c2nc(C)c3c(c2c1)SCC3`, the TGI was 35.8 µM in assay [1]; 70.9 µM in assay [2]; 40.9 µM in assay [3]; 36.2 µM in assay [4]; above 100 µM in assay [5]; 52.9 µM in [6]. In addition, the TGI in [7] is 58 µM; in assay [8] it was 67.5 µM; in assay [9], 48.8 µM; in assay [10] it was above 100 µM.

As to `Cc1[nH]c2ccccc2c1CCCO`, the GI50 in assay [1] is above 100 µM; in assay [2], above 100 µM; in assay [3], above 100 µM; in [4] it was above 100 µM; in assay [5], above 100 µM; in assay [6] it was above 100000 nM. For the same molecule, the GI50 was above 100 µM in assay [7], above 100 µM in assay [8], 75.2 µM in assay [9] and above 100 µM in assay [10]. The TGI in assay [1], in assay [2], in [3], in assay [4], in [5] and in assay [6] was above 100 µM throughout. For the same molecule, the TGI in assay [7], in assay [8], in [9] and in assay [10] was above 100 µM in each case.

Consider `CN1CCN(C(=O)C(C)(C)c2ccc(C(=O)Nc3cn4cc(-c5ccncc5)ccc4n3)cc2)CC1`, for which the GI50 in [1] is 0.246 µM; in assay [2], 0.193 µM; in [3] it was 0.214 µM; in assay [4], 0.282 µM; in assay [5], 0.389 µM; in [6], 491 nM. Also, the GI50 in [7] is 0.201 µM; in assay [8] it was 0.316 µM; in assay [9], 0.272 µM; in [10], 0.194 µM. Further, the TGI in [1] was 1.17 µM; in assay [2], above 100 µM; in [3] it was above 100 µM; in [4], above 100 µM; in assay [5], 22.8 µM; in [6], above 100 µM. In addition, the TGI in assay [7] is above 100 µM; in [8] it was 1.62 µM; in assay [9] it was 1.3 µM; in assay [10] it was above 100 µM.

Consider `COC(=O)C1(Cc2ccc3c(c2)CCC3)Cc2ccccc2C1O` (centres undefined), for which the TGI in [1] came out at 33.1 µM; in assay [2], 52.3 µM; in assay [3] it was 49.2 µM; in assay [4], 49.6 µM; in assay [5] it was 34.9 µM; in assay [6] it was 69.4 µM. Besides, the TGI in assay [7] is above 100 µM; in assay [8], 27.4 µM; in assay [9], 29.2 µM; in assay [10], 40.5 µM.

As to `O=C1c2cc3c(cc2[C@@H]2[C@H]1c1ccc([N+](=O)[O-])cc1C(=O)N2CCCBr)OCO3`, the GI50 is below 0.01 µM in assay [1]; below 0.01 µM in [2]; below 0.01 µM in assay [3]; below 0.01 µM in [4]; below 0.01 µM in assay [5]; 37.9 nM in assay [6]. For the same molecule, the GI50 in assay [7] was below 0.01 µM; in [8] it was 2.15 µM; in assay [9] it was below 0.01 µM; in assay [10] it was below 0.0121 µM. Further, the TGI in assay [1] is below 0.01 µM; in assay [2], below 0.0335 µM; in assay [3] it was 0.0865 µM; in assay [4], below 0.01 µM; in [5] it was 0.318 µM; in [6], 0.501 µM. The TGI in assay [7] is above 100 µM; in [8], above 100 µM; in assay [9], above 100 µM; in assay [10] it was 0.444 µM.

Source of the values: PubChem BioAssay (NCI).
